Assay results published in US11154563B2, “Immunoproteasome inhibitors” (Principia Biopharma Inc., priority 2017, dated 2021).

What was measured:
[1] = biological target: constitutive proteasome β5c unit (Homo sapiens, UniProt P20618+P28074); assay: Caliper-based proteasome enzymatic activity assay, β5c; assay type: biochemical; conditions: human recombinant constitutive proteasome 0.3 nM, FAM-peptide substrate 1 μM, 3 h at rt; read-out: β5c subunit IC50
Description: (§1) A Caliper-based proteasome assay (Caliper Life Sciences, Hopkinton, Mass.) was used to measure inhibition of the immunoproteasome LMP7/B5i subunit, the immunoproteasome LPM2/β1i subunit, and the constitutive proteasome β5c unit for a compound of Formula (I). For LMP7 and β5c, serial dilutions of test compounds were incubated with either human recombinant immunoprotcasome or constitutive proteasome (0.3 nM enzyme) and a carboxyfluorescein (FAM)-labeled peptide substrate FAM-TYETFKSIMKKSPF-NH2 (1 μM) at it for 3 h. The reaction was then terminated with a buffer containing the known proteasome inhibitor carfilzomib at a concentration of 5 uM. For LMP2, serial dilutions of test compounds were incubated with human recombinant immunoproteasome proteasome (0.3 nM enzyme) and a carboxyfluorescein (FAM)-labeled peptide substrate FAM-[…]-NH2 (1 μM) at rt for 2 h. The reaction was then terminated with a buffer containing the known proteasome inhibitor ixazomib at a concentration of 6.7 uM. The reaction buffer was 20 mM Hepes pH 7.4, 0.01% bovine serum albumin, 0.015% SDS, 0.5 mM EDTA, 1%0/DMSO. The peptide cleavage reaction product was quantified on a Caliper LabChip 3000. Percent inhibition was calculated for each compound dilution and the concentration that produced 50% inhibition was calculated. This value is presented as the IC50.

[2] = biological target: immunoproteasome LMP7/B5i subunit (Homo sapiens, UniProt P20618+P28062); assay: Caliper-based proteasome enzymatic activity assay, LMP7; assay type: biochemical; conditions: human recombinant immunoproteasome 0.3 nM, FAM-peptide substrate 1 μM, 3 h at rt
Description: as §1

| Structure (SMILES) | IC50 [1] [nM] | IC50 [2] [nM] |
| --- | --- | --- |
| CC(=O)N1CCN(C(C)(C)C=C(C#N)C(=O)N2CCC[C@@H]2COC(=O)N[C@@H](Cc2coc3ccccc23)B(O)O)CC1 [Example 53, ((R)-1-(((((R)-1-(4-(4-acetylpiperazin-1-yl)-2-cyano-4-methylpent-2-enoyl)pyrrolidin-2-yl)methoxy)carbonyl)amino)-2-(benzofuran-3-yl)ethyl)boronic acid] | 205 | 1.8 |
| CC(C)(C=C(C#N)C(=O)N1C[C@@H]2C[C@@H]2[C@@H]1COC(=O)N[C@@H](Cc1coc2ccccc12)B(O)O)N1CCC(F)(F)C1 [Example 54, ((R)-2-(benzofuran-3-yl)-1-(((((1S,2R,5R)-3-(2-cyano-4-(3,3-difluoropyrrolidin-1-yl)-4-methylpent-2-enoyl)-3-azabicyclo[3.1.0]hexan-2-yl)methoxy)carbonyl)amino)ethyl)boronic acid] | 192 | 1.6 |
| CN1CCN(C(C)(C)C=C(C#N)C(=O)N2CCC[C@@H]2COC(=O)N[C@@H](Cc2coc3ccccc23)B(O)O)CC1 [Example 55, ((R)-2-(benzofuran-3-yl)-1-(((((R)-1-(2-cyano-4-methyl-4-(4-methylpiperazin-1-yl)pent-2-enoyl)pyrrolidin-2-yl)methoxy)carbonyl)amino)ethyl)boronic acid] | 225 | 2.5 |
| CC(C)(C=C(C#N)C(=O)N1CC(F)(F)C[C@@H]1COC(=O)N[C@@H](Cc1coc2ccccc12)B(O)O)N1CCOCC1 [Example 56, ((R)-2-(benzofuran-3-yl)-1-(((((R)-1-(2-cyano-4-methyl-4-morpholinopent-2-enoyl)-4,4-difluoropyrrolidin-2-yl)methoxy)carbonyl)amino)ethyl)boronic acid] | 148 | 1.7 |
| C[C@H]1CC[C@H](COC(=O)N[C@@H](Cc2coc3ccccc23)B(O)O)N1C(=O)C(C#N)=CC(C)(C)N1CCOCC1 [Example 57, ((R)-2-(benzofuran-3-yl)-1-(((((2R,5S)-1-(2-cyano-4-methyl-4-morpholinopent-2-enoyl)-5-methylpyrrolidin-2-yl)methoxy)carbonyl)amino)ethyl)boronic acid] | 176 | 1.4 |
| CC(C)(C=C(C#N)C(=O)N1CCOC[C@@H]1COC(=O)N[C@@H](Cc1coc2ccccc12)B(O)O)N1CCOCC1 [Example 58, ((R)-2-(benzofuran-3-yl)-1-(((((R)-4-(2-cyano-4-methyl-4-morpholinopent-2-enoyl)morpholin-3-yl)methoxy)carbonyl)amino)ethyl)boronic acid] | 23 | 0.8 |
| CC(C)(C=C(C#N)C(=O)N1CCCC[C@@H]1COC(=O)N[C@@H](Cc1coc2ccccc12)B(O)O)N1CCN(C2COC2)CC1 [Example 60, ((R)-2-(benzofuran-3-yl)-1-(((((R)-1-(2-cyano-4-methyl-4-(4-(oxetan-3-yl)piperazin-1-yl)pent-2-enoyl)piperidin-2-yl)methoxy)carbonyl)amino)ethyl)boronic acid] | 232 | 0.9 |
| CC(C)(C)/C=C(\C#N)C(=O)N1CC(F)(F)C[C@@H]1COC(=O)N[C@@H](Cc1ccccc1)B(O)O [Example 61, ((R)-1-(((((R)-1-((E)-2-cyano-4,4-dimethylpent-2-enoyl)-4,4-difluoropyrrolidin-2-yl)methoxy)carbonyl)amino)-2-phenylethyl)boronic acid] | 1490 | 1.4 |
| CC(C)(C=C(C#N)C(=O)N1CCCC[C@@H]1COC(=O)N[C@@H](Cc1coc2ccccc12)B(O)O)N1CCCC(F)(F)C1 [Example 62, ((R)-2-(benzofuran-3-yl)-1-(((((R)-1-(2-cyano-4-(3,3-difluoropiperidin-1-yl)-4-methylpent-2-enoyl)piperidin-2-yl)methoxy)carbonyl)amino)ethyl)boronic acid] | 205 | 1.6 |
| CC(C)(C=C(C#N)C(=O)N1CCCCC[C@@H]1COC(=O)N[C@@H](Cc1coc2ccccc12)B(O)O)N1CCOCC1 [Example 63, ((R)-2-(benzofuran-3-yl)-1-(((((R)-1-(2-cyano-4-methyl-4-morpholinopent-2-enoyl)-azepan-2-yl)methoxy)carbonyl)amino)ethyl)boronic acid] | 230 | 1.4 |
| CC(C)(C=C(C#N)C(=O)N1CCCCC[C@H]1COC(=O)N[C@@H](Cc1coc2ccccc12)B(O)O)N1CCOCC1 [Example 64, ((R)-2-(benzofuran-3-yl)-1-(((((S)-1-(2-cyano-4-methyl-4-morpholinopent-2-enoyl)azepan-2-yl)methoxy)carbonyl)amino)ethyl)boronic acid] | 645 | 3.3 |
| CC(C)(C=C(C#N)C(=O)N1CCOC[C@@H]1COC(=O)N[C@@H](Cc1coc2ccccc12)B(O)O)N1CCC(F)(F)C1 [Example 65, ((R)-2-(benzofuran-3-yl)-1-(((((R)-4-(2-cyano-4-(3,3-difluoropyrrolidin-1-yl)-4-methylpent-2-enoyl)morpholin-3-yl)methoxy)carbonyl)amino)ethyl)boronic acid] | 60 | 2.3 |
| CC(C)(C=C(C#N)C(=O)N1CCCC[C@@H]1COC(=O)N[C@@H](Cc1coc2ccccc12)B(O)O)N1CCC(F)(F)CC1 [Example 66, ((R)-2-(benzofuran-3-yl)-1-(((((R)-1-(2-cyano-4-(4,4-difluoropiperidin-1-yl)-4-methylpent-2-enoyl)piperidin-2-yl)methoxy)carbonyl)amino)ethyl)boronic acid] | 217 | 2.1 |
| CC(C)(C=C(C#N)C(=O)N1CCCCC[C@H]1COC(=O)N[C@@H](Cc1coc2ccccc12)B(O)O)N1CCC(F)(F)C1 [Example 68, ((R)-2-(benzofuran-3-yl)-1-(((((S)-1-(2-cyano-4-(3,3-difluoropyrrolidin-1-yl)-4-methylpent-2-enoyl)azepan-2-yl)methoxy)carbonyl)amino)ethyl)boronic acid] | 447 | 2.5 |
| CC(C)(C)C=C(C#N)C(=O)N1CCOC[C@@H]1COC(=O)N[C@@H](Cc1ccccc1)B(O)O [Example 69, ((R)-1-(((((R)-4-(2-cyano-4,4-dimethylpent-2-enoyl)morpholin-3-yl)methoxy)carbonyl)amino)-2-phenylethyl)boronic acid] | 670 | 3.2 |
| COc1ccc(C[C@H](NC(=O)OC[C@H]2CCCCN2C(=O)C(C#N)=CC(C)(C)C)B(O)O)cc1 [Example 70, ((R)-1-(((((R)-1-(2-cyano-4,4-dimethylpent-2-enoyl)piperidin-2-yl)methoxy)carbonyl)amino)-2-(4-methoxyphenyl)ethyl)boronic acid] | 1840 | 6.5 |
| CC(C)(C=C(C#N)C(=O)N1CCC[C@]1(C)COC(=O)N[C@@H](Cc1coc2ccccc12)B(O)O)N1CCOCC1 [Example 71, ((R)-2-(benzofuran-3-1)-1-(((((R)-1-(2-cyano-4-methyl-4-morpholinopent-2-enoyl)-2-methylpyrrolidin-2-yl)methoxy)carbonyl)amino)ethyl)boronic acid] | 1660 | 4.5 |
| CC(C)(C=C(C#N)C(=O)N1CCCCC[C@@H]1COC(=O)N[C@@H](Cc1coc2ccccc12)B(O)O)N1CCC(F)(F)C1 [Example 72, ((R)-2-(benzofuran-3-yl)-1-(((((R)-1-(2-cyano-4-(3,3-difluoropyrrolidin-1-yl)-4-methylpent-2-enoyl)azepan-2-yl)methoxy)carbonyl)amino)ethyl)boronic acid] | 225 | 2.5 |
| Cc1ccc(C[C@H](NC(=O)OC[C@H]2COCCN2C(=O)C(C#N)=CC(C)(C)C)B(O)O)cc1 [Example 73, ((R)-1-(((((R)-4-(2-cyano-4,4-dimethylpent-2-enoyl)morpholin-3-yl)methoxy)carbonyl)amino)-2-(p-tolyl)ethyl)boronic acid] | 288 | 2.7 |
| Cc1ccc(C[C@H](NC(=O)OC[C@H]2[C@H]3C[C@H]3CN2C(=O)C(C#N)=CC(C)(C)N2CCOCC2)B(O)O)cc1 [Example 75] | 1020 | 1.1 |
| Cc1ccc(C[C@H](NC(=O)OC[C@H]2[C@H]3C[C@H]3CN2C(=O)C(C#N)=CC(C)(C)C)B(O)O)cc1 [Example 76] | 677 | 1.2 |
| COc1cccc(C[C@H](NC(=O)OC[C@H]2CCCCN2C(=O)C(C#N)=CC(C)(C)C)B(O)O)c1 [Example 77, ((R)-1-(((((R)-1-(2-cyano-4,4-dimethylpent-2-enoyl)piperidin-2-yl)methoxy)carbonyl)amino)-2-(3-methoxyphenyl)ethyl)boronic acid] | > 5000 | 13 |
| COc1ccc(C[C@H](NC(=O)OC[C@H]2CCCCN2C(=O)C(C#N)=CC(C)(C)N2CCC(F)(F)C2)B(O)O)cc1 [Example 78, ((R)-1-(((((R)-1-(2-cyano-4-(3,3-difluoropyrrolidin-1-yl)-4-methylpent-2-enoyl)piperidin-2-yl)methoxy)carbonyl)amino)-2-(4-methoxyphenyl)ethyl)boronic acid] | 1270 | 4.8 |
